Experimental data from patent publication US9580409B2, “Modulators of opioid receptors and methods of use thereof” (priority 2011, dated 2017).
Like-named read-outs stand apart in the source and are kept apart here.

Target: mu-opioid receptor (Homo sapiens, UniProt P35372)
Assay: biochemical
Conditions: read-out: GTP Activity
[1] = […], class symbol combines EC50 and efficacy

mu-opioid receptor, sequence (P35372 whole entry, species assumed): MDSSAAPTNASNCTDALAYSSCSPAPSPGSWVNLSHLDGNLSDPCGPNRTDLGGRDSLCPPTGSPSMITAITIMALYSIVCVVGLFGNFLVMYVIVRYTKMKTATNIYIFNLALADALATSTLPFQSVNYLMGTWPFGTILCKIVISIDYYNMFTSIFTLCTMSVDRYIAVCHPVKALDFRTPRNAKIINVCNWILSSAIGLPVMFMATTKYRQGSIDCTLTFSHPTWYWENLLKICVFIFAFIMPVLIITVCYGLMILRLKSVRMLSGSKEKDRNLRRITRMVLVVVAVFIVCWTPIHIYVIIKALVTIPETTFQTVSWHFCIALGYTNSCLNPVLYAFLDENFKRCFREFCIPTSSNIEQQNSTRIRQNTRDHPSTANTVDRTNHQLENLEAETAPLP

Row | SMILES | EC50 [1] [nM] | EC50 (class symbols) [nM]
1 | CNC1=C(c2nc3ccccc3[nH]2)C(=O)[C@@](C)(CNC(=O)COC)N1c1cc(OC)cc(OC)c1 [compound 318] | < 100 | 
2 | CC[C@@H]1C(=O)C(c2nc3ccccc3[nH]2)=C(N)N1c1cc(OC)cc(OC)c1 [compound 97] |  | 1000 to 10000
3 | COc1cc(OC)cc(N2C(N)=C(c3nc4ccccc4[nH]3)C(=O)[C@@H]2C)c1 [compound 83] |  | 1000 to 10000
4 | CNC1=C(c2nc3ccccc3[nH]2)C(=O)[C@@](C)(CO)N1c1cc(OC)cc(OC)c1 [compound 211] | 100 to 1000 | 
5 | CNC1=C(c2nc3ccccc3[nH]2)C(=O)C(C)(C)N1c1cc(O)cc(OC)c1 [compound 129] |  | 100 to 1000
6 | COc1cc(OC)cc(-n2c(N)c(-c3nc4ccccc4[nH]3)c(=O)n2C)c1 [compound 86] |  | 100 to 1000
7 | CNC1=C(c2nc3ccccc3[nH]2)C(=O)C(C)(CCNC(C)=O)N1c1cc(OC)cc(OC)c1 (centres unmarked) [compound 284] | < 100 | 
8 | COc1cc(OC)cc(N2C(N)=C(c3nc4ccccc4[nH]3)C(=O)C2CN)c1 (centres unmarked) [compound 70] |  | 100 to 1000
9 | CNC1=C(c2nc3ccccc3[nH]2)C(=O)C2(CNC2)N1c1cc(OC)cc(OC)c1 [compound 192] |  | 100 to 1000
10 | CNC1=C(c2nc3ccccc3[nH]2)C(=O)[C@@](C)(CCNC(C)=O)N1c1cc(OC)cc(OC)c1 [compound 304] | < 100 | 
11 | CCNC1=C(c2nc3ccccc3[nH]2)C(=O)[C@@H](CC)N1c1cc(OC)cc(OC)c1 [compound 186] |  | 100 to 1000
12 | CNC1=C(c2nc3ccccc3[nH]2)C(=O)C2(CCC(=O)C2)N1c1cc(OC)cc(OC)c1 (centres unmarked) [compound 312] | < 100 | 
13 | COc1cc(OC)cc(-n2c(NO)c(-c3nc4ccccc4[nH]3)c(=O)n2C)c1 [compound 143] |  | 1000 to 10000
14 | COCC1C(=O)C(c2nc3ccccc3[nH]2)=C(N)N1c1cc(OC)cc(OC)c1 (centres unmarked) [compound 68] |  | 100 to 1000
15 | CNc1c(-c2nc3ccccc3[nH]2)c(=O)n(CCNC(C)=O)n1-c1cc(OC)cc(OC)c1 [compound 271] | 100 to 1000 | 
16 | COc1cc(OC)cc(N2C(N)=C(c3nc4ccccc4[nH]3)C(=O)C2(C)CCO)c1 (centres unmarked) [compound 216] | 100 to 1000 | 
17 | CNC1=C(c2nc3ccccc3[nH]2)C(=O)[C@](C)(CO)N1c1cc(OC)cc(OC)c1 [compound 212] | < 100 | 
18 | CNC1=C(c2nc3ccccc3[nH]2)C(=O)C(CO)(CO)N1c1cc(OC)cc(OC)c1 [compound 263] | 100 to 1000 | 
19 | COc1cc(OC)cc(N2C(N)=C(c3nc4ccccc4[nH]3)C(=O)C23CC(=O)C3)c1 [compound 207] | 100 to 1000 | 
20 | CC1(C)C(=O)C(c2nc3ccccc3[nH]2)=C(N)N1c1cc(Cl)cc(Cl)c1 [compound 159] |  | 1000 to 10000
21 | COc1cc(OC)cc(N2C(N)=C(c3nc4ccccc4[nH]3)C(=O)C2CCCCO)c1 (centres unmarked) [compound 223] | 100 to 1000 | 
22 | CNC1=C(c2nc3ccccc3[nH]2)C(=O)C(CO)(CCl)N1c1cc(OC)cc(OC)c1 (centres unmarked) [compound 264] | 100 to 1000 | 
23 | COc1cc(OC)cc(N2C(N)=C(c3nc4ccccc4[nH]3)C(=O)[C@]23C[C@H](O)C3)c1 [compound 258] | 100 to 1000 | 
24 | CNC(=O)CC1C(=O)C(c2nc3ccccc3[nH]2)=C(N)N1c1cc(OC)cc(OC)c1 (centres unmarked) [compound 246] | 1000 to 10000 | 
25 | CC[C@@]1(C)C(=O)C(c2nc3ccccc3[nH]2)=C(N)N1c1cc(OC)cc(OC)c1 [compound 85] |  | 100 to 1000
26 | CNC1=C(c2nc3ccccc3[nH]2)C(=O)[C@@](C)(COC)N1c1cc(OC)cc(OC)c1 [compound 298] | < 100 | 

Row | SMILES | EC50 [1] [nM] | EC50 (class symbols) [nM]
27 | CNC1=C(c2nc3ccccc3[nH]2)C(=O)[C@@]2(CCCOC2)N1c1cc(OC)cc(OC)c1 [compound 306] | 100 to 1000 | 
28 | CC(C)(C)c1ccccc1N1CC(=O)C(c2nc3ccccc3[nH]2)=C1N [compound 48] |  | 1000 to 10000
29 | COc1cc(OC)cc(N2C(N)=C(c3nc4ccccc4[nH]3)C(=O)C23CCCOC3)c1 (centres unmarked) [compound 295] | 100 to 1000 | 
30 | CC(C)(C)Oc1ccccc1N1CC(=O)C(c2nc3ccccc3[nH]2)=C1N [compound 45] |  | 1000 to 10000
31 | CNC1=C(c2nc3ccccc3[nH]2)C(=O)C2(CC(O)C2)N1c1cc(OC)cc(OC)c1 (centres unmarked) [compound 259] | < 100 | 
32 | COc1cc(OC)cc(N2C(N)=C(c3nc4ccccc4[nH]3)C(=O)C2CCNc2ccccc2)c1 (centres unmarked) [compound 232] | 100 to 1000 | 
33 | COc1cc(OC)cc(-n2nc(Nc3ccccc3)c(-c3nc4ccccc4[nH]3)c2O)c1 [compound 197] |  | 1000 to 10000
34 | CNc1c(-c2nc3ccccc3[nH]2)c(=O)n(C2COC2)n1-c1cc(OC)cc(OC)c1 [compound 270] | < 100 | 
35 | CNC1=C(c2nc3ccccc3[nH]2)C(=O)C(C)(c2ccco2)N1c1cc(OC)cc(OC)c1 (centres unmarked) [compound 278] | 100 to 1000 | 
36 | COc1cc(OC)cc(N2C(N)=C(c3nc4ccccc4[nH]3)C(=O)C23CCN(C)C3)c1 (centres unmarked) [compound 183] |  | 1000 to 10000
37 | COc1cc(OC)cc(N2C(N)=C(c3nc4ccccc4[nH]3)C(=O)C2CCn2ccnc2)c1 (centres unmarked) [compound 239] | 100 to 1000 | 
38 | COc1cc(OC)cc(N2CC(=O)C(c3nc4c(F)cccc4[nH]3)=C2N)c1 [compound 11] |  | 1000 to 10000
39 | COc1cc(OC)cc(N2C(N)=C(c3nc4ccccc4[nH]3)C(=O)C2(C)c2ccc(O)cc2)c1 (centres unmarked) [compound 209] | 1000 to 10000 | 
40 | CCc1cc(OC)cc(N2C(N)=C(c3nc4ccccc4[nH]3)C(=O)C2(C)C)c1 [compound 155] |  | 100 to 1000
41 | CNc1c(-c2nc3ccccc3[nH]2)c(=O)n(C2CCC2)n1-c1cc(OC)cc(OC)c1 [compound 269] | 100 to 1000 | 
42 | CNC1=C(c2nc3ccccc3[nH]2)C(=O)C(C)(C(C)=O)N1c1cc(OC)cc(OC)c1 (centres unmarked) [compound 277] | 100 to 1000 | 
43 | CNC1=C(c2nc3ccccc3[nH]2)C(=O)C(C)(CO)N1c1cc(OC)cc(OC)c1 (centres unmarked) [compound 201] | < 100 | 
44 | CNC1=C(c2nc3ccccc3[nH]2)C(=O)C(C)(CC(C)=O)N1c1cc(OC)cc(OC)c1 (centres unmarked) [compound 276] | 100 to 1000 | 
45 | COCCC1C(=O)C(c2nc3ccccc3[nH]2)=C(N)N1c1cc(OC)cc(OC)c1 (centres unmarked) [compound 69] |  | 100 to 1000
46 | Cc1ccc(C)c(N2CC(=O)C(c3nc4cc(C)ccc4[nH]3)=C2N)c1 [compound 15] |  | 1000 to 10000
47 | [2H]C([2H])([2H])Oc1cc(OC([2H])([2H])[2H])cc(N2C(NC)=C(c3nc4ccccc4[nH]3)C(=O)C2(C)C)c1 [compound 175] |  | < 100
48 | COc1cc(OC)cc(N2CC(=O)C(c3nc4c(C)cccc4[nH]3)=C2N)c1 [compound 5] |  | 1000 to 10000
49 | COc1cc(OC)cc(N2C(N)=C(c3nc4ccccc4[nH]3)C(=O)C2(C)c2cccc(O)c2)c1 (centres unmarked) [compound 210] | 1000 to 10000 | 
50 | COc1cc(OC)cc(N2C(N)=C(c3nc4ccccc4[nH]3)C(=O)[C@]23C[C@@H](O)C3)c1 [compound 206] | 100 to 1000 | 
51 | COc1cc(OC)cc(N2C(N)=C(c3nc4ccccc4[nH]3)C(=O)C2(C)CO)c1 (centres unmarked) [compound 133] |  | 100 to 1000
52 | C=C1C(=O)C(c2nc3ccccc3[nH]2)=C(N)N1c1cc(OC)cc(OC)c1 [compound 177] |  | 100 to 1000

Row | SMILES | EC50 [1] [nM] | EC50 (class symbols) [nM]
53 | COCCC1(C)C(=O)C(c2nc3ccccc3[nH]2)=C(N)N1c1cc(OC)cc(OC)c1 (centres unmarked) [compound 219] | 100 to 1000 | 
54 | COc1cc(OC)cc(N2C(NCC3CC3)=C(c3nc4ccccc4[nH]3)C(=O)C2(C)C)c1 [compound 125] |  | 1000 to 10000
55 | COc1cc(OC)cc(N2C(N)=C(c3nc4ccccc4[nH]3)C(=O)C23CCCNC3)c1 (centres unmarked) [compound 293] | 1000 to 10000 | 
56 | COc1cc(OC)cc(N2C(N)=C(c3nc4ccccc4[nH]3)C(=O)[C@@H]2c2ccccc2)c1 [compound 106] |  | 1000 to 10000
57 | COc1cccc(N2C(N)=C(c3nc4ccccc4[nH]3)C(=O)C2(C)C)c1 [compound 163] |  | 1000 to 10000
58 | COc1cc(OC)cc(N2C(N)=C(c3nc4ccccc4[nH]3)C(=O)C23CCCN(C(C)=O)C3)c1 (centres unmarked) [compound 294] | 1000 to 10000 | 
59 | CNC1=C(c2nc3ccccc3[nH]2)C(=O)C(C(C)=O)N1c1cc(OC)cc(OC)c1 (centres unmarked) [compound 279] | < 100 | 
60 | COc1cc(OC)cc(N2C(N)=C(c3nc4ccccc4[nH]3)C(=O)C2CCN)c1 (centres unmarked) [compound 238] | 1000 to 10000 | 
61 | COc1cc(OC)cc(-n2c(=O)c(-c3nc4ccccc4[nH]3)c(N)n2C(C)C)c1 [compound 74] |  | 1000 to 10000
62 | CCOC(=O)C1CC2(CC1=O)C(=O)C(c1nc3ccccc3[nH]1)=C(N)N2c1cc(OC)cc(OC)c1 (centres unmarked) [compound 313] | 1000 to 10000 | 
63 | C=CCNC1=C(c2nc3ccccc3[nH]2)C(=O)C(C)(C)N1c1cc(OC)cc(OC)c1 [compound 122] |  | 100 to 1000
64 | NC1=C(c2nc3ccccc3[nH]2)C(=O)CN1c1ccccc1Oc1ccccc1 [compound 46] |  | 1000 to 10000
65 | CC[C@]1(C)C(=O)C(c2nc3ccccc3[nH]2)=C(N)N1c1cc(OC)cc(OC)c1 [compound 84] |  | 100 to 1000
66 | COc1cc(OC)cc(N2C(N)=C(c3nc4ccccc4[nH]3)C(=O)C2CCN(C)C(=O)c2ccccc2)c1 (centres unmarked) [compound 257] | 100 to 1000 | 
67 | COc1cc(OC)cc(N2C(Nc3ccccc3)=C(c3nc4ccccc4[nH]3)C(=O)C2(C)C)c1 [compound 126] |  | 1000 to 10000
68 | COc1cc(OC)cc(N2C(N)=C(c3nc4ccccc4[nH]3)C(=O)C2CCN(C)C)c1 (centres unmarked) [compound 222] | 1000 to 10000 | 
69 | CNc1c(-c2nc3ccccc3[nH]2)c(=O)n(C)n1-c1cc(OC)cc(OC)c1 [compound 140] |  | < 100
70 | CNC1=C(c2nc3ccccc3[nH]2)C(=O)[C@@H](CNC(=O)COC)N1c1cc(OC)cc(OC)c1 [compound 316] | < 100 | 
71 | CC[C@@H]1C(=O)C(c2nc3ccccc3[nH]2)=C(NC)N1c1cc(OC)cc(OC)c1 [compound 184] |  | 100 to 1000
72 | COc1cc(OC)cc(N2C(N)=C(c3nc4ccccc4[nH]3)C(=O)C23CC3)c1 [compound 131] |  | 1000 to 10000
73 | CCC1(C)C(=O)C(c2nc3ccccc3[nH]2)=C(N)N1c1cc(OC)cc(OC)c1 (centres unmarked) [compound 53] |  | 100 to 1000
74 | COc1cc(OC)cc(N2C(N)=C(c3nc4ccccc4[nH]3)C(=O)C2CCc2ccccc2)c1 (centres unmarked) [compound 229] | 1000 to 10000 | 
75 | COc1cc(OC)cc(N2C(N)=C(c3nc4ccccc4[nH]3)C(=O)C2CC(=O)O)c1 (centres unmarked) [compound 244] | 1000 to 10000 | 
76 | CNC1=C(c2nc3ccccc3[nH]2)C(=O)C(CCN)N1c1cc(OC)cc(OC)c1 (centres unmarked) [compound 253] | 100 to 1000 | 
77 | CNC1=C(c2nc3ccccc3[nH]2)C(=O)[C@H](CNC(=O)COC)N1c1cc(OC)cc(OC)c1 [compound 315] | < 100 | 
